Paper PMC11344848, “Proximity-driven site-specific cyclization of phage-displayed peptides” (Nature Communications, 2024)
Positions of bridges follow the written chain, without caps; N, C: chain ends. No end group written: not given here.

Legend:
[1] = target: T1, streptavidin (Streptomyces avidinii, UniProt P22629); assay: Streptavidin-binding phage ELISA; conditions: for Phage ELISA signal, Linear: Figure 6a, peptide linear (reduced using DTT), bound phage detected with anti-M13-HRP; for Phage ELISA signal, Linear / Phage ELISA signal, Lin: phage clone; for Phage ELISA signal, Lin: Figure 6b, peptide linear; for Binding to streptavidin in phage ELISA (in words): phage-displayed peptide, form as stated in the sentence (CCA replaced with linkers 1, 2, 3 or 4; CCA-cyclized negative control)
Protocol: All incubation steps were performed at room temperature unless otherwise stated. A Pierce™ streptavidin-coated 96 well plate (Thermo Fisher Scientific) was treated O/N at 4 °C with biotinylated antigen (50 µL/well, 10 ng/µL in assay buffer). The next day, the plate was washed x3 with PBS to remove unbound antigen and incubated for 1 h with blocking buffer (300 µL/ well). At the same time, phage cultures (100 µL, ~ 10^10) were incubated for 1 h with blocking buffer (400 µL).
The 96-well plate was washed x3 with PBS and subsequently incubated with blocked phage (50 µL/ well) for 1 h. The plate was washed x3 with PBST, and bound phage was detected via the addition of anti-M13 HRP conjugated secondary antibody (50 µL/ well, 1/5000 dilution in blocking buffer, Abcam). After 1 h, the plate was washed x3 with PBST. HRP was developed using TMB substrate (50 µL/ well, Thermo Fisher Scientific), quenched after 5 min with H2SO4 (50 µL/ well, 0.5 M) and visualised at λ = […] using an EnVision Microplate Reader (PerkinElmer). Data was processed using SoftMax® Pro Software v7. […]
Biotinylated antigen = none required, assay buffer = N/A, blocking buffer = 3% (w/v) mPBS.

[2] = target: T1, streptavidin; assay: Sequencing of clones enriched after three rounds of selection of library L1-CCA against streptavidin; conditions: clones sequenced after three rounds of selection against streptavidin
Protocol: Streptavidin-coated magnetic Dynabeads™ (50 μL/ selection, prewashed with 1 mL PBS) were blocked with 3% (w/v) mPBS (1 mL) for 1 h on a rotary mixer at room temperature and 20 RPM. L1 phage particles (~ 10^11) were reduced with DTT (1 mM) for 30 min at 37 °C in PBS (total reaction volume = 100 µL). The beads were pelleted on a magnetic stand and reduced L1 phage particles (~ 10^11) were added. After 1 h on a rotary mixer at room temperature and 20 RPM, the beads were pelleted and the supernatant was transferred to a fresh Eppendorf. Linker CCA (final concentration = 150 µM) in DMSO (5% total volume) was added and the reaction was left to incubate for 2 h at room temperature.
L1-CCA: Output phage from the negative streptavidin selection above.
L1-Red/ L1-CCA input phage (~ 10^11) and streptavidin-coated magnetic Dynabeads™ (50 μL/ selection, prewashed with 1 mL PBS) were incubated with 3% (w/v) mPBS (volume made up to 500 μL for phage, 1 mL for beads) for 1 h on a rotary mixer at room temperature and 20 RPM. The beads were pelleted on a magnetic stand and resuspended in 3% (w/v) mPBS (100 μL). An aliquot of the blocked beads (50 μL) was added to the blocked phage. The mixture was incubated for 1 h on a rotary mixer at room temperature and 20 RPM.
Using a Kingfisher mL apparatus, the beads were washed x5 with PBST (1 mL) and eluted into trypsin solution (10 µg/ mL trypsin in 0.1 M pH 7.0 sodium phosphate buffer, 200 µL). Trypsin digest was performed for 30 min at 37 °C and 600 RPM, the beads were pelleted and the supernatant was added to OD600nm = 0.6 TG1 E. coli (800 µL). After 1 h at 37 °C and 250 RPM, output titres were performed and the remaining cells were plated O/N on a 2xTYAG bioassay plate at 37 °C. The next day, the cells were harvested from the plate, as described below.

[3] = target: T1, streptavidin; assay: SPR binding of synthetic peptides to immobilised streptavidin (Biacore 8K); conditions: synthetic peptide as disulphide-bonded entity, 25 °C, 4.1-9000 nM, HBS-EP+ pH 7.4
Protocol: The affinity of peptides Str1 and Str1-CCA to streptavidin was measured using the Biacore 8 K (GE Healthcare) at 25 °C.
For cyclization, peptide Str1 (5 mg, GL Biochem) was dissolved in PBS (20 mL) and treated with DTT (1.2 eq.) for 1 h at RT then linker CCA (2 eq.) for 3 h at RT. The reaction was purified by RP-HPLC and characterised by LC-MS to confirm the correct identity of the cyclized product, Str1-CCA. Str1 = 1351 Da and Str1-CCA = 1601 Da.
Streptavidin was covalently immobilised to a CM5 chip surface (Cytiva, BR100530, lot 10340325) using standard amine coupling techniques at a concentration of 16 µg/ml in 10 mM sodium acetate pH 4.5.
The peptides were serially diluted (4.1 – 9000 nM) in HBS-EP + buffer pH 7.4 and flowed over the chip at 30 µL/min, with 180 s association and 600 s dissociation. Multiple buffer-only injections were made under the same conditions to allow for double reference subtraction of the final sensorgram sets, which were analysed using Biacore 8 K Evaluation Software. Each experiment was repeated three times, which gave consistent results. Representative results are presented in the paper.

[4] = system: Ph1 phage particles; assay: Phage infectivity studies (titre of infective phage after linker treatment); conditions: Figure 4d; phage treated with DTT (1 mM) only
Protocol: CCA: Ph1 phage particles (~ 10^11) were reduced with DTT (1 mM) for 30 min at 37 °C in a total volume of 95 µL. Linker CCA (final concentration = 150 µM) in DMSO (5% total volume) was added and the reaction was left to incubate for 2 h at room temperature. DBX: Ph1 phage particles (~ 10^11) were reduced with TCEP (1 mM) for 30 min at 37 °C in a total volume of 95 µL. Reduced Ph1 phage particles were buffer exchanged into NH4HCO3 (20 mM, pH 8.0) using Zeba™ Spin Desalting Columns (7 K MWCO, 0.5 mL) following the manufacturer’s instructions. Linker DBX (final concentration = 150 µM) in DMSO (5% total volume) was added and the reaction was left to incubate for 2 h at room temperature.
For each sample, two 100-fold dilutions in 2xTY were prepared. An aliquot (10 μL) of the 10^−4 dilution sample was added to TG1 E. coli (990 µL) grown to OD600nm = 0.6. After 1 h of infection at 37 °C and 150 RPM, four further 10-fold dilutions in 2xTY were prepared (10^−7 – 10^−10). Aliquots (100 µL) of dilution samples 10^−7 – 10^−10 were plated O/N on 2xTYAG agar at 37 °C. The next day, phage titres were calculated according to the equation.
Cfu/mL = [No. of colonies] x [Dilution factor] x [1/Volume plated (mL)].

T1 sequence (P22629 25-183): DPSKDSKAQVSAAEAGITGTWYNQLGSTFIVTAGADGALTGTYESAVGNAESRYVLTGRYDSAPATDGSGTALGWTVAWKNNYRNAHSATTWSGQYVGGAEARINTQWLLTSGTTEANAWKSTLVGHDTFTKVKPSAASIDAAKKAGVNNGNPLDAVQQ

Row | Molecule | Phage ELISA signal, Linear [1] | Abundance (Total = 96) [2] | other results
1 | CPFNIASPFYGC [Str6, phage clone displaying streptavidin-selected peptide] | 0.254 | 12 | 
2 | CPTNTQYDLTIC |  | 4 | 
3 | CPYNIAGPPLYC [Str3, phage clone displaying streptavidin-selected peptide] | 0.123 | 13 | 
4 | CPINVQYSTGTC [Str7, phage clone displaying streptavidin-selected peptide] | 0.032 | 1 | Phage ELISA signal, Lin [1]: 0.106; Binding to streptavidin in phage ELISA (in words) [1]: no binding
5 | CPFNFFIWNDEC [Str9, phage clone displaying streptavidin-selected peptide] | 0.315 | 2 | 
6 | CPYNIINPTFDC [Str5, phage clone displaying streptavidin-selected peptide] | 0.096 | 8 | 
7 | CPINIFHPPPDC (disulfide 1-12 (inferred)) [Str1, streptavidin-selected peptide; tested as phage clone and as synthetic disulphide-bonded peptide] | 0.115 | 42 | SPR signal (in words) [3]: no SPR signal observed
8 | CPYNVERPDSHC [Str8, phage clone displaying streptavidin-selected peptide] | 0.029 | 2 | 
9 | CGGSGGC [negative control phage construct, reference compound] | 0.052 |  | Phage ELISA signal, Lin [1]: 0.065; Binding to streptavidin in phage ELISA (in words) [1]: No binding
10 | CPFNILVPFIDC [Str4, phage clone displaying streptavidin-selected peptide] | 0.254 | 5 | 
11 | O[C@@H](CS)[C@@H](O)CS [DTT, reference compound] |  |  | Phage titre [4]: 1.30E+11 Cfu/mL
12 | CPFNIKNPDDGC [Str2, phage clone displaying streptavidin-selected peptide] | 0.111 | 7 | 
13 | CWLNHPQAPPEC [reference compound] | 1.437 |  | 
